Experiments:
Assay in all cases: relative viability (nuclei count vs DMSO), 5 days (fraction); higher = more cells survive
NCI-H1755 = system: NCI-H1755
Procedure, shortened: (§1)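 Five library-drug doses in √10 steps were combined with a fixed anchor-drug dose, or a single drug was given alone, by pin tool to lung cancer cell lines in 1536-well plates the day after seeding. Nuclei were stained and counted after 5 days. Relative viability is the nuclei count in treated wells over that in vehicle wells, taken as the median of duplicate plates.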

NCI-H1793 = system: NCI-H1793
Procedure, shortened: as §1

UMC-11 = system: UMC-11
Procedure, shortened: as §1

HOP-62 = system: HOP-62
Procedure, shortened: as §1

NCI-H522 = system: NCI-H522
Procedure, shortened: as §1

NCI-H2170 = system: NCI-H2170
Procedure, shortened: as §1

COR-L 105 = system: COR-L 105
Procedure, shortened: as §1

NCI-H1355 = system: NCI-H1355
Procedure, shortened: as §1

SK-MES-1 = system: SK-MES-1
Procedure, shortened: as §1

NCI-H2228 = system: NCI-H2228
Procedure, shortened: as §1

NCI-H2347 = system: NCI-H2347
Procedure, shortened: as §1

HARA = system: HARA
Procedure, shortened: as §1

## COc1cc2nccc(Oc3ccc(NC(=O)Nc4cc(C)on4)c(Cl)c3)c2cc1OC [Tivozanib] + Cc1nc(Nc2ncc(C(=O)Nc3c(C)cccc3Cl)s2)cc(N2CCN(CCO)CC2)n1 [Dasatinib] (partner 0.075 µM)
NCI-H1755; first compound 0.1581 µM
  relative viability: 0.315
NCI-H1755; first compound 0.5 µM
  relative viability: 0.383
NCI-H1793; first compound 0.005 µM
  relative viability: 0.351
NCI-H1793; first compound 0.01581 µM
  relative viability: 0.355
NCI-H1793; first compound 0.05 µM
  relative viability: 0.388
NCI-H1793; first compound 0.1581 µM
  relative viability: 0.204
NCI-H1793; first compound 0.5 µM
  relative viability: 0.428
UMC-11; first compound 0.005 µM
  relative viability: 0.416
UMC-11; first compound 0.01581 µM
  relative viability: 0.46
UMC-11; first compound 0.05 µM
  relative viability: 0.465
UMC-11; first compound 0.5 µM
  relative viability: 0.38
HOP-62; first compound 0.005 µM
  relative viability: 0.638
HOP-62; first compound 0.01581 µM
  relative viability: 0.668
HOP-62; first compound 0.05 µM
  relative viability: 0.633
HOP-62; first compound 0.1581 µM
  relative viability: 0.583
HOP-62; first compound 0.5 µM
  relative viability: 0.698
NCI-H522; first compound 0.005 µM
  relative viability: 0.731
NCI-H522; first compound 0.01581 µM
  relative viability: 0.9
NCI-H522; first compound 0.05 µM
  relative viability: 0.836
NCI-H522; first compound 0.1581 µM
  relative viability: 0.845
NCI-H522; first compound 0.5 µM
  relative viability: 0.74
NCI-H2170; first compound 0.005 µM
  relative viability: 0.599
NCI-H2170; first compound 0.01581 µM
  relative viability: 0.494
NCI-H2170; first compound 0.05 µM
  relative viability: 0.616
NCI-H2170; first compound 0.1581 µM
  relative viability: 0.348
NCI-H2170; first compound 0.5 µM
  relative viability: 0.569
COR-L 105; first compound 0.005 µM
  relative viability: 0.34
COR-L 105; first compound 0.01581 µM
  relative viability: 0.361
COR-L 105; first compound 0.05 µM
  relative viability: 0.467
COR-L 105; first compound 0.1581 µM
  relative viability: 0.269
COR-L 105; first compound 0.5 µM
  relative viability: 0.354
NCI-H1355; first compound 0.005 µM
  relative viability: 0.672
NCI-H1355; first compound 0.01581 µM
  relative viability: 0.689
NCI-H1355; first compound 0.05 µM
  relative viability: 0.787
NCI-H1355; first compound 0.1581 µM
  relative viability: 0.413
NCI-H1355; first compound 0.5 µM
  relative viability: 0.691
SK-MES-1; first compound 0.005 µM
  relative viability: 0.288
SK-MES-1; first compound 0.01581 µM
  relative viability: 0.404
SK-MES-1; first compound 0.05 µM
  relative viability: 0.442
SK-MES-1; first compound 0.1581 µM
  relative viability: 0.332
SK-MES-1; first compound 0.5 µM
  relative viability: 0.416
NCI-H2228; first compound 0.005 µM
  relative viability: 0.431
NCI-H2228; first compound 0.01581 µM
  relative viability: 0.532
NCI-H2228; first compound 0.05 µM
  relative viability: 0.551
NCI-H2228; first compound 0.1581 µM
  relative viability: 0.445
NCI-H2228; first compound 0.5 µM
  relative viability: 0.524
NCI-H2347; first compound 0.01581 µM
  relative viability: 0.308
NCI-H2347; first compound 0.05 µM
  relative viability: 0.294
NCI-H2347; first compound 0.5 µM
  relative viability: 0.281
HARA; first compound 0.005 µM
  relative viability: 0.242
HARA; first compound 0.01581 µM
  relative viability: 0.269
HARA; first compound 0.05 µM
  relative viability: 0.286
HARA; first compound 0.1581 µM
  relative viability: 0.19
HARA; first compound 0.5 µM
  relative viability: 0.251

Reference: the supplement of paper PMC10307832
